Assay results: the NIST ThermoML archive (doi:10.1016/j.fluid.2012.02.007)
Numbers after ± are expanded uncertainties.

Conditions: Liquid, Vibrating tube method

CCCCCCO [hexan-1-ol]
mass density [kg/m3]
Conditions | 293.15 K | 303.15 K | 313.15 K | 323.15 K | 333.15 K | 343.15 K
100 kPa | 818.6 ± 1 | 811.5 ± 1 | 804.2 ± 1 | 797.3 ± 1 | 789.7 ± 1 | 781.9 ± 1
10000 kPa | 824.8 ± 1 | 818.2 ± 1 | 811.1 ± 1 | 804.5 ± 1 | 797.2 ± 1 | 790.2 ± 1
20000 kPa | 830.9 ± 1 | 824.1 ± 1 | 817.4 ± 1 | 811.2 ± 1 | 804.3 ± 1 | 797.6 ± 1
30000 kPa | 836.4 ± 1 | 830 ± 1 | 823.5 ± 1 | 817.4 ± 1 | 810.8 ± 1 | 804.4 ± 1
40000 kPa | 841.6 ± 1 | 835.1 ± 1.1 | 829 ± 1.1 | 823.3 ± 1.1 | 817 ± 1.1 | 810.6 ± 1.1
50000 kPa | 846.5 ± 1.1 | 840.5 ± 1.1 | 834.4 ± 1.1 | 828.7 ± 1.1 | 822.7 ± 1.1 | 816.4 ± 1.1
60000 kPa | 851.1 ± 1.1 | 845.3 ± 1.1 | 839.4 ± 1.1 | 833.8 ± 1.1 | 828 ± 1.1 | 822.1 ± 1.1
70000 kPa | 855.5 ± 1.1 | 849.8 ± 1.1 | 844.3 ± 1.1 | 838.5 ± 1.1 | 832.8 ± 1.1 | 827.3 ± 1.1
80000 kPa | 859.8 ± 1.1 | 854.2 ± 1.1 | 848.7 ± 1.1 | 843.1 ± 1.1 | 837.6 ± 1.1 | 832.1 ± 1.1
90000 kPa | 863.7 ± 1.1 | 858.4 ± 1.1 | 853.1 ± 1.1 | 847.6 ± 1.2 | 842.5 ± 1.2 | 836.9 ± 1.2
100000 kPa | 867.9 ± 1.1 | 862.4 ± 1.1 | 857.1 ± 1.2 | 851.8 ± 1.2 | 846.8 ± 1.2 | 841.4 ± 1.2
110000 kPa | 871.5 ± 1.2 | 866.3 ± 1.2 | 861.2 ± 1.2 | 856 ± 1.2 | 850.8 ± 1.2 | 845.7 ± 1.2
120000 kPa | 875.2 ± 1.2 | 870 ± 1.2 | 865.1 ± 1.2 | 860 ± 1.2 | 854.4 ± 1.2 | 849.7 ± 1.2
130000 kPa | 878.7 ± 1.2 | 873.6 ± 1.2 | 868.7 ± 1.2 | 863.7 ± 1.2 | 858.5 ± 1.2 | 853.6 ± 1.3
140000 kPa | 882.2 ± 1.2 | 877.1 ± 1.2 | 872.5 ± 1.2 | 867.3 ± 1.2 | 862.2 ± 1.3 | 857.5 ± 1.3
